Reference: ChEMBL document CHEMBL3860054, “Design, synthesis and biological evaluation of novel alkyl diamine linked bivalent β-carbolines as angiogenesis inhibitors” (Bioorg Med Chem Lett, 2016)
Calls of active or inactive are those of the source. The calls are words filed in the database; no cut-off is given here.

Assays:
[1] = Antiproliferative activity against human EAhy926 cells assessed as reduction in cell viability measured after 48 hrs by MTT assay; type: functional, cell-based; settings: EA.hy 926, 48 h
[2] = Solubility of compound in water; type: physicochemical
[3] = species on record: Gallus gallus; assay: Antiangiogenic activity in chicken chorioallantoic membrane at 30 uM/disc after 48 hrs by microscopic analysis; type: functional
[4] = tested on: EA.hy 926; assay: Antiangiogenic activity in human EAhy926 cells assessed as inhibition of VEGF-induced capillary-like tube formation on matrigel after 24 hrs by phase-contrast microscopy; type: functional, cell-based
[5] = tested on: EA.hy 926; assay: Antiangiogenic activity in human EAhy926 cells assessed as inhibition of VEGF-induced cell migration measured after 24 hrs by wound healing assay relative to control; type: functional, cell-based

SMILES | solubility [2] | IC50 [1] | Activity [3] | inhibition [4] | inhibition [5]
Cc1nc(CNCCCCNCc2cc3c4ccccc4n(CCCc4ccccc4)c3c(C)n2)cc2c3ccccc3n(CCCc3ccccc3)c12.Cl | > 10000 µg/mL | 2.11 µM |  |  | 
CC(C)n1c2ccccc2c2cc(CNCCCCNCc3cc4c5ccccc5n(C(C)C)c4cn3)ncc21.Cl | > 10000 µg/mL | 2.48 µM |  |  | 
CC(C)n1c2ccccc2c2cc(CNCCCCCCNCc3cc4c5ccccc5n(C(C)C)c4cn3)ncc21.Cl | > 10000 µg/mL | 2.74 µM |  |  | 
Cc1nc(CNCCCCNCc2cc3c4ccccc4n(Cc4cccc(Cl)c4)c3c(C)n2)cc2c3ccccc3n(Cc3cccc(Cl)c3)c12.Cl | > 10000 µg/mL | 4.81 µM |  |  | 
CC(C)Cn1c2ccccc2c2cc(CNCCCCNCc3cc4c5ccccc5n(CC(C)C)c4cn3)ncc21.Cl | > 10000 µg/mL | 3.08 µM |  |  | 
CCCCn1c2ccccc2c2cc(CNCCCNCc3cc4c5ccccc5n(CCCC)c4cn3)ncc21.Cl | > 10000 µg/mL | > 10 µM |  |  | 
Cl.c1ccc(CCCn2c3ccccc3c3cc(CNCCCCCCNCc4cc5c6ccccc6n(CCCc6ccccc6)c5cn4)ncc32)cc1 | > 10000 µg/mL | 2.35 µM |  |  | 
COc1ccc(/C=C\c2cc(OC)c(OC)c(OC)c2)cc1OP(=O)(O)O [FOSBRETABULIN] |  | 6.4 µM |  |  | 
Cl.c1ccc(Cn2c3ccccc3c3cc(CNCCCNCc4cc5c6ccccc6n(Cc6ccccc6)c5cn4)ncc32)cc1 | > 10000 µg/mL | > 10 µM |  |  | 
Cl.Clc1cccc(Cn2c3ccccc3c3cc(CNCCCCNCc4cc5c6ccccc6n(Cc6cccc(Cl)c6)c5cn4)ncc32)c1 | > 10000 µg/mL | 6.86 µM |  |  | 
CCCCn1c2ccccc2c2cc(CNCCCCCCNCc3cc4c5ccccc5n(CCCC)c4c(C)n3)nc(C)c21.Cl | > 10000 µg/mL | 2.74 µM |  |  | 
Cl.Clc1cccc(Cn2c3ccccc3c3cc(CNCCCCCNCc4cc5c6ccccc6n(Cc6cccc(Cl)c6)c5cn4)ncc32)c1 | > 10000 µg/mL | 1.06 to 1.1 µM | Active | Dose-dependent effect | Dose-dependent effect
CCCCCCCCn1c2ccccc2c2cc(CNCCCCCNCc3cc4c5ccccc5n(CCCCCCCC)c4cn3)ncc21.Cl | > 10000 µg/mL | 3.77 µM |  |  | 
Cc1nc(CNCCCCCCNCc2cc3c4ccccc4n(Cc4ccccc4)c3c(C)n2)cc2c3ccccc3n(Cc3ccccc3)c12.Cl | > 10000 µg/mL | 1.39 µM |  |  | 
Cc1nc(CNCCCCCCNCc2cc3c4ccccc4n(CC(C)C)c3c(C)n2)cc2c3ccccc3n(CC(C)C)c12.Cl | > 10000 µg/mL | 2.68 µM |  |  | 
CCCCn1c2ccccc2c2cc(CNCCCCNCc3cc4c5ccccc5n(CCCC)c4cn3)ncc21.Cl | > 10000 µg/mL | 2.17 µM |  |  | 
CCn1c2ccccc2c2cc(CNCCCCNCc3cc4c5ccccc5n(CC)c4cn3)ncc21.Cl | > 10000 µg/mL | > 10 µM |  |  | 

Further lines, with some results ahead:

solubility [2] | SMILES | IC50 [1] | Activity [3] | inhibition [4] | inhibition [5]
> 10000 µg/mL | CCCCCCCCn1c2ccccc2c2cc(CNCCCCNCc3cc4c5ccccc5n(CCCCCCCC)c4cn3)ncc21.Cl | 4.86 µM |  |  | 
> 10000 µg/mL | Cl.c1ccc(Cn2c3ccccc3c3cc(CNCCCCCCNCc4cc5c6ccccc6n(Cc6ccccc6)c5cn4)ncc32)cc1 | 4.76 µM |  |  | 
> 10000 µg/mL | CC(C)Cn1c2ccccc2c2cc(CNCCCCCCNCc3cc4c5ccccc5n(CC(C)C)c4cn3)ncc21.Cl | 6.3 µM |  |  | 
> 10000 µg/mL | Cl.Fc1ccc(Cn2c3ccccc3c3cc(CNCCCCCNCc4cc5c6ccccc6n(Cc6ccc(F)cc6)c5cn4)ncc32)cc1 | 4.14 µM |  |  | 
> 10000 µg/mL | CCn1c2ccccc2c2cc(CNCCCCCCNCc3cc4c5ccccc5n(CC)c4cn3)ncc21.Cl | 2.59 µM |  |  | 
> 10000 µg/mL | Cl.Cn1c2ccccc2c2cc(CNCCCCCCNCc3cc4c5ccccc5n(C)c4cn3)ncc21 | 2.58 µM |  |  | 
> 10000 µg/mL | Cl.Clc1cccc(Cn2c3ccccc3c3cc(CNCCCCCCNCc4cc5c6ccccc6n(Cc6cccc(Cl)c6)c5cn4)ncc32)c1 | 2.98 µM |  |  | 
> 10000 µg/mL | Cl.c1ccc(CCCn2c3ccccc3c3cc(CNCCCCNCc4cc5c6ccccc6n(CCCc6ccccc6)c5cn4)ncc32)cc1 | 4.18 µM |  |  | 
> 10000 µg/mL | Cl.Fc1ccc(Cn2c3ccccc3c3cc(CNCCCCCCNCc4cc5c6ccccc6n(Cc6ccc(F)cc6)c5cn4)ncc32)cc1 | 4.08 µM |  |  | 
> 10000 µg/mL | CCCCn1c2ccccc2c2cc(CNCCCCCCNCc3cc4c5ccccc5n(CCCC)c4cn3)ncc21.Cl | 4.82 µM |  |  | 
